Source: PubChem BioAssay (NCI)
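All cell lines were grown in 96-well plates and treated with compound for 48 hours. GI50 marks 50% less growth. At the TGI there is no net growth.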

Columns and labels:
Experiment in all cases: growth of human tumour cells (NCI), 48 h
SNB-19 CNS = test system: SNB-19 CNS
OVCAR-8 ovarian = test system: OVCAR-8 ovarian
K-562 leukemia = test system: K-562 leukemia
A498 renal = test system: A498 renal
TK-10 renal = test system: TK-10 renal
786-0 renal = test system: 786-0 renal
RXF 393 renal = test system: RXF 393 renal
ACHN renal = test system: ACHN renal
SN12C renal = test system: SN12C renal
OVCAR-3 ovarian = test system: OVCAR-3 ovarian
OVCAR-4 ovarian = test system: OVCAR-4 ovarian
IGROV1 ovarian = test system: IGROV1 ovarian
UACC-257 melanoma = test system: UACC-257 melanoma
MDA-MB-468 breast = test system: MDA-MB-468 breast
HCT-15 colon = test system: HCT-15 colon
HCT-116 colon = test system: HCT-116 colon
HOP-92 NSCLC = test system: HOP-92 NSCLC
T-47D breast = test system: T-47D breast
SW-620 colon = test system: SW-620 colon
RPMI-8226 leukemia = test system: RPMI-8226 leukemia
HT29 colon = test system: HT29 colon
MOLT-4 leukemia = test system: MOLT-4 leukemia
DU-145 prostate = test system: DU-145 prostate
UACC-62 melanoma = test system: UACC-62 melanoma
NCI-H226 lung = test system: NCI-H226 lung
MCF7 breast = test system: MCF7 breast
NCI-H522 lung = test system: NCI-H522 lung
SK-MEL-28 melanoma = test system: SK-MEL-28 melanoma
PC-3 prostate = test system: PC-3 prostate
MDA-MB-435 = test system: MDA-MB-435
KM12 colon = test system: KM12 colon
OVCAR-5 ovarian = test system: OVCAR-5 ovarian
M14 melanoma = test system: M14 melanoma
SF-295 CNS = test system: SF-295 CNS
SR leukemia = test system: SR leukemia
COLO 205 colon = test system: COLO 205 colon
CAKI-1 renal = test system: CAKI-1 renal
LOX IMVI melanoma = test system: LOX IMVI melanoma
NCI-H23 lung = test system: NCI-H23 lung
BT-549 breast = test system: BT-549 breast
CCRF-CEM leukemia = test system: CCRF-CEM leukemia
MALME-3M melanoma = test system: MALME-3M melanoma
EKVX NSCLC = test system: EKVX NSCLC
HL-60(TB) leukemia = test system: HL-60(TB) leukemia
HS 578T breast = test system: HS 578T breast
NCI/ADR-RES ovarian = test system: NCI/ADR-RES ovarian
SF-539 CNS = test system: SF-539 CNS
SF-268 CNS = test system: SF-268 CNS
A549 NSCLC = test system: A549 NSCLC
HOP-62 NSCLC = test system: HOP-62 NSCLC

Q: Which results are given for COc1cc2cc(C(=O)N3C[C@@H](CCl)c4c3cc(OC(=O)N3CCN(C)[C@@H]5CSSC[C@@H]53)c3ccccc43)[nH]c2c(OC)c1OC?
A: GI50 (SNB-19 CNS): 0.224 µM; TGI (SNB-19 CNS): 6.41 µM; GI50 (OVCAR-8 ovarian): 0.151 µM; TGI (OVCAR-8 ovarian): 2.21 µM; GI50 (K-562 leukemia): 0.397 µM; TGI (K-562 leukemia): > 100 µM; GI50 (A498 renal): 1.23 µM; TGI (A498 renal): 3.88 µM; GI50 (TK-10 renal): 1.29 µM; TGI (TK-10 renal): > 100 µM; GI50 (786-0 renal): 0.197 µM; TGI (786-0 renal): 0.579 µM; GI50 (RXF 393 renal): 0.132 µM; TGI (RXF 393 renal): 0.273 µM; GI50 (ACHN renal): 0.0282 µM; TGI (ACHN renal): 0.222 µM; GI50 (SN12C renal): 0.203 µM; TGI (SN12C renal): 31.7 µM; GI50 (OVCAR-3 ovarian): 0.489 µM; TGI (OVCAR-3 ovarian): 5.54 µM; GI50 (OVCAR-4 ovarian): 1.62 µM; TGI (OVCAR-4 ovarian): > 100 µM; GI50 (IGROV1 ovarian): 1.53 µM; TGI (IGROV1 ovarian): > 100 µM; GI50 (UACC-257 melanoma): 0.501 µM; TGI (UACC-257 melanoma): 2.99 µM; GI50 (MDA-MB-468 breast): 0.164 µM; TGI (MDA-MB-468 breast): 0.392 µM; GI50 (HCT-15 colon): 0.247 µM; TGI (HCT-15 colon): 11.7 µM; GI50 (HCT-116 colon): 0.187 µM; TGI (HCT-116 colon): > 100 µM; GI50 (HOP-92 NSCLC): 0.238 µM; TGI (HOP-92 NSCLC): 0.809 µM; GI50 (T-47D breast): 0.287 µM; TGI (T-47D breast): > 100 µM; GI50 (SW-620 colon): 0.264 µM; TGI (SW-620 colon): > 100 µM; GI50 (RPMI-8226 leukemia): 0.161 µM; TGI (RPMI-8226 leukemia): 0.569 µM; GI50 (HT29 colon): 0.226 µM; TGI (HT29 colon): 37.3 µM; GI50 (MOLT-4 leukemia): 0.0697 µM; TGI (MOLT-4 leukemia): 1.78 µM; GI50 (DU-145 prostate): 0.0626 µM; TGI (DU-145 prostate): > 100 µM; GI50 (UACC-62 melanoma): 0.147 µM; TGI (UACC-62 melanoma): 0.665 µM; GI50 (NCI-H226 lung): 1.02 µM; TGI (NCI-H226 lung): 7.85 µM; GI50 (MCF7 breast): 0.0281 µM; TGI (MCF7 breast): 12.9 µM; GI50 (NCI-H522 lung): 0.146 µM; TGI (NCI-H522 lung): 0.531 µM; GI50 (SK-MEL-28 melanoma): 0.261 µM; TGI (SK-MEL-28 melanoma): 0.762 µM; GI50 (PC-3 prostate): 0.358 µM; TGI (PC-3 prostate): 13.7 µM; GI50 (MDA-MB-435): 0.836 µM; TGI (MDA-MB-435): 2.93 µM; GI50 (KM12 colon): 1.1 µM; TGI (KM12 colon): 26.7 µM; GI50 (OVCAR-5 ovarian): 0.284 µM; TGI (OVCAR-5 ovarian): 1.4 µM; GI50 (M14 melanoma): 0.251 µM; TGI (M14 melanoma): 1.06 µM; GI50 (SF-295 CNS): 0.133 µM; TGI (SF-295 CNS): 0.474 µM; GI50 (SR leukemia): 0.0373 µM; TGI (SR leukemia): 0.299 µM; GI50 (COLO 205 colon): 0.328 µM; TGI (COLO 205 colon): 1.64 µM; GI50 (CAKI-1 renal): 0.248 µM; TGI (CAKI-1 renal): > 100 µM; GI50 (LOX IMVI melanoma): 0.165 µM; TGI (LOX IMVI melanoma): 0.829 µM; GI50 (NCI-H23 lung): 0.0454 µM; TGI (NCI-H23 lung): 0.186 µM; GI50 (BT-549 breast): 0.165 µM; TGI (BT-549 breast): 0.593 µM; GI50 (CCRF-CEM leukemia): 0.105 µM; TGI (CCRF-CEM leukemia): 1.39 µM; GI50 (MALME-3M melanoma): 0.213 µM; TGI (MALME-3M melanoma): 0.719 µM; GI50 (EKVX NSCLC): 0.23 µM; TGI (EKVX NSCLC): 1.81 µM; GI50 (HL-60(TB) leukemia): 0.052 µM; TGI (HL-60(TB) leukemia): 0.64 µM; GI50 (HS 578T breast): 2.26 µM; TGI (HS 578T breast): 7.04 µM; GI50 (NCI/ADR-RES ovarian): 0.148 µM; TGI (NCI/ADR-RES ovarian): 0.613 µM; GI50 (SF-539 CNS): 0.172 µM; TGI (SF-539 CNS): 0.477 µM; GI50 (SF-268 CNS): 0.175 µM; TGI (SF-268 CNS): 12.2 µM; GI50 (A549 NSCLC): 0.18 µM; TGI (A549 NSCLC): > 100 µM; GI50 (HOP-62 NSCLC): 0.205 µM; TGI (HOP-62 NSCLC): 0.925 µM
